Source: patent publication US20150004134A1, “TREATMENT OF CANCER WITH HETEROCYCLIC INHIBITORS OF GLUTAMINASE” (Calithera Biosciences, Inc., priority 2012, published 2015)
Read-outs that look alike come from different tables or passages of the source.

Legend:
[1] = molecular target: T1, recombinant form of Glutaminase 1 (GAC) (Homo sapiens, UniProt O94925); test: Recombinant Enzyme Assay (no preincubation); assay type: biochemical; settings: read-out: GAC Delta N2 IC50 no preinc;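 note: GDH-coupled GAC activity read as absorbance at 340 nm in kinetic mode over 15 min at 20 °C, slopes compared with a DMSO-only control, lower slope means inhibition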
T1 sequence (O94925 137-598 isoform O94925-3 limits assumed): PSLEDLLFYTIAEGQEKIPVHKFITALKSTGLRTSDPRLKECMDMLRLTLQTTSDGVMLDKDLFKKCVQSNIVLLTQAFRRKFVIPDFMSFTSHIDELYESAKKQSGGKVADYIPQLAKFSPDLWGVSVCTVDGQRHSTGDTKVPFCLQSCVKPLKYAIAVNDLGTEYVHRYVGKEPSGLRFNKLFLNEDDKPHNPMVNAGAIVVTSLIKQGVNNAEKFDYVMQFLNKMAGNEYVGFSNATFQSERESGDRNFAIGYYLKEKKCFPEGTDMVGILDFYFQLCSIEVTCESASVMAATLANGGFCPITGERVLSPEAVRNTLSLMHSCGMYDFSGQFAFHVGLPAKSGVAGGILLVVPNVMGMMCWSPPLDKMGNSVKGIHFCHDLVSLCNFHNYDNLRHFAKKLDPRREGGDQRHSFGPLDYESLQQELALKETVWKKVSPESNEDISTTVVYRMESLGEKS
Method: Compounds were assessed for their ability to inhibit the enzymatic activity of a recombinant form of Glutaminase 1 (GAC) using a biochemical assay that couples the production of glutamate (liberated by GAC) to glutamate dehydrogenase (GDH) and measuring the change in absorbance for the reduction of NAD^+ to NADH. […] Enzymatic reaction was started with the addition of 50 μL of enzyme solution (50 mM Tris-HCl pH 8.0, 0.2 mM EDTA, 150 mM K2HPO4, 0.1 mg/ml BSA, 1 mM DTT, 10 ppm antifoam, 4 units/ml GDH, 4 mM adenosine diphosphate, and 4 nM GAC) and read in a Molecular Devices M5 plate reader at 20° C. The plate reader was configured to read absorbance (λ=340 nm) in kinetic mode for 15 minutes. Data was recorded as milli-absorbance units per minute and slopes were compared to a control compound and a DMSO-only control on the same plate. Compounds with slopes less than the DMSO control were considered inhibitors and plate variability was assessed using the control compound.

[2] = test system: P493-6 (myc "on") cells; test: Cell Proliferation Assay; assay type: cell-based; settings: P493-6, 72 h
Procedure, shortened: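 P493-6 cells with myc on, 10,000 per well in RPMI/10% FBS, exposed to serially diluted compound (0.5% DMSO final) for 72 h at 37 °C, 5% CO2. Antiproliferative effect read by Cell Titer Glo luminescence or Viacount FACS viability count.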

[3] = read-out: Cell prolif P493 72 h IC50, P493 cells, 72 h
[4] = read-out: Cell prolif P493 72 h IC50, P493-6 cells, 72 h

Compound	IC50 [1] [µM]	IC50 [2, 3] [µM]	IC50 [2, 4] [µM]
O=C(Cc1ccccc1)Nc1ccc(CCCCc2nnc(NC(=O)[C@H](O)c3cccc(Cl)c3)s2)nn1 [Compound 340]	0.096	0.038	–
O=C(Cc1cccc2cnccc12)Nc1nnc(CCCCc2nnc(NC(=O)Cc3cccc4cnccc34)s2)s1 [Compound 639]	0.17	–	23
Cc1nccn1Cc1cccc(CC(=O)Nc2nnc(CCCCc3ccc(NC(=O)Cc4ccccc4)nn3)s2)c1 [Compound 380]	0.12	0.019	–
O=C(Cc1ccccc1)Nc1ccc(CCCCc2nnc(NC(=O)OCc3ccccc3)s2)nn1 [Compound 386]	0.085	0.15	–
O=C(Cc1ccccn1)Nc1ccc(CCCCc2nnc(NC(=O)Cc3ccccc3)s2)nn1 [Compound 383]	0.086	0.022	–
COc1ccc(CC(=O)Nc2nnc(CCCCc3nnc(NC(=O)Cc4ccc(OC)cc4)s3)s2)cc1 [Compound 163]	0.13	> 50	–
O=C(CCCCN1CCOCC1)OCN(C(=O)Cc1ccccc1)c1nnc(CCSCCc2nnc(N(COC(=O)OCCCN3CCOCC3)C(=O)Cc3ccccc3)s2)s1 [Compound 28]	> 50	1	–
COc1cccc(CC(=O)Nc2nnc(CCCCc3ccc(NC(=O)Cc4ccccc4)nn3)s2)c1 [Compound 353]	0.049	0.021	–
O=C(Cc1ccccc1)Nc1ccc(CCCCc2nnc(NC(=O)C(CO)c3ccccc3)s2)nn1 (centres unmarked) [Compound 314]	0.14	0.048	–
C=C(C(=O)Nc1nnc(CCCCc2nnc(NC(=O)C(OCC(=O)CCN3CCOCC3)c3ccccc3)s2)s1)c1ccccc1 (centres unmarked) [Compound 281]	0.74	0.66	–
Nc1ccc(CCCCc2nnc(NC(=O)Cc3cccc(OCc4ccccc4)c3)s2)nn1 [Compound 385]	0.26	0.72	–
Nc1cccc(CC(=O)Nc2nnc(CCCCc3nnc(NC(=O)Cc4cccc(N)c4)s3)s2)c1 [Compound 329]	0.17	0.45	–
O=C(Nc1nnc(CCSCCc2nnc(NC(=O)C3COc4ccccc43)s2)s1)C1COc2ccccc21 (centres unmarked) [Compound 133]	0.51	0.15	–
O=C(Cc1ccccc1)Nc1ccc(CCCCc2nnc(NC(=O)Cc3cccnc3)s2)nn1 [Compound 355]	0.1	0.039	–
CCOC(=O)Nc1nnc(CCCCc2nnc(NC(=O)Cc3ccccc3)s2)s1 [Compound 244]	0.84	1.7	–
O=C(Nc1nnc(CCSCc2nnc(NC(=O)C(CO)c3ccccc3)s2)s1)C(CO)c1ccccc1 (centres unmarked) [Compound 239]	0.3	0.3	–
O=C(Cc1ccccn1)Nc1nnc(CCCCc2nnc(NC(=O)Cc3ccccn3)s2)s1 [Compound 307]	6.4	9.3	–
O=C(Nc1nnc(CCSCCc2nnc(NC(=O)C(CO)c3ccccc3)s2)s1)C(CO)c1ccccc1 (centres unmarked) [Compound 24]	0.51	2.3	–
COc1cc(CC(=O)Nc2nnc(CCCCc3nnc(NC(=O)Cc4cc(OC)cc(OC)c4)s3)s2)cc(OC)c1 [Compound 205]	0.38	4.1	–
O=C(Cc1ccccc1)Nc1ccc(CCCCc2nnc(NC(=O)Cc3cccc(O)c3)s2)nn1 [Compound 337]	0.073	0.021	–
O=C(Cc1cccc2[nH]ncc12)Nc1nnc(CCCCc2nnc(NC(=O)Cc3cccc4[nH]ncc34)s2)s1 [Compound 640]	0.12	–	0.07
CC[C@@](O)(C(=O)Nc1nnc(CCCCc2nnc(NC(=O)[C@](O)(CC)c3ccccc3)s2)s1)c1ccccc1 [Compound 144]	> 20	–	–

Compound	IC50 [1] [µM]	IC50 [2, 3] [µM]	IC50 [2, 4] [µM]
O=C(Nc1nnc(CCSCCc2nnc(NC(=O)[C@H]3C[C@@H]3c3ccccc3)s2)s1)C1C[C@@H]1c1ccccc1 (some centres unmarked) [Compound 91]	> 20	–	–
COc1cccc(CC(=O)Nc2nnc(CCSCc3nnc(NC(=O)Cc4cccc(OC)c4)s3)s2)c1 [Compound 250]	0.12	0.14	–
COc1cccc(CC(=O)Nc2ccc(CCCCc3nnc(NC(=O)Cc4ccccc4)s3)nn2)c1 [Compound 366]	0.074	0.024	–
O=C(Cc1ccccc1)Nc1ccc(CCCCc2nnc(NC(=O)Cc3cccc(OCCN4CCOCC4)c3)s2)nn1 [Compound 381]	0.16	0.018	–
O=C(Nc1nnc(CCSCc2nnc(NC(=O)[C@@H](O)c3ccccc3)s2)s1)[C@@H](O)c1ccccc1 [Compound 242]	0.36	0.22	–
COc1cccc(CC(=O)Nc2nnc(CCCCc3nnc(NC(=O)Cc4cccc(OC)c4)s3)s2)c1 [Compound 159]	0.11	0.05	–
COc1cccc(CC(=O)Nc2nnc(CCSCCc3nnc(NC(=O)Cc4ccccn4)s3)s2)c1 [Compound 360]	0.28	0.67	–
O=C(Cc1cccc2ncccc12)Nc1nnc(CCCCc2nnc(NC(=O)Cc3cccc4ncccc34)s2)s1 [Compound 641]	0.14	–	0.5
O=C(Cc1ccccc1)Nc1nnc(CCCCc2nnc(NC(=O)Cc3ccccn3)s2)s1 [Compound 310]	0.083	0.12	–
O=C(Cc1cccc(OCCO)c1)Nc1nnc(CCCCc2nnc(NC(=O)Cc3cccc(OCCO)c3)s2)s1 [Compound 235]	0.11	0.21	–
CC(=O)O[C@@H](C(=O)Nc1nnc(CCSCc2nnc(NC(=O)[C@H](OC(C)=O)c3ccccc3)s2)s1)c1ccccc1 [Compound 238]	13	–	–
O=C(Cc1ccccc1)Nc1nnc(CCSCCc2nnc(NC(=O)C(CO)c3ccccc3)s2)s1 (centres unmarked) [Compound 29]	0.56	4.1	–
CC(C)(C)OC(=O)NCc1cccc(CC(=O)Nc2nnc(CCCCc3nnc(NC(=O)Cc4cccc(CNC(=O)OC(C)(C)C)c4)s3)s2)c1 [Compound 324]	4.6	0.1	–
O=C(Cc1cccc(CN2CCNCC2)c1)Nc1nnc(CCSCc2nnc(NC(=O)Cc3cccc(CN4CCNCC4)c3)s2)s1 [Compound 276]	1.5	56	–
O=C(Cc1ccccc1)Nc1ccc(CCCCc2nnc(NC(=O)Cc3cccc(OCc4ccccc4)c3)s2)nn1 [Compound 338]	0.15	0.043	–
O=C(Cc1ccccc1)Nc1ccc(CCCCc2nnc(NC(=O)Cc3ccc(O)c(Cl)c3)s2)nn1 [Compound 336]	0.068	0.052	–
O=C(O)Cc1cccc(CC(=O)Nc2nnc(CCCCc3nnc(NC(=O)Cc4cccc(CC(=O)O)c4)s3)s2)c1 [Compound 313]	0.27	94	–
O=C(Cc1ccccc1)Nc1ccc(CCCCc2nnc(NC(=O)C(O)c3cc(F)cc(F)c3)s2)nn1 (centres unmarked) [Compound 351]	0.11	0.049	–
O=C(Cc1ccccc1)Nc1ccc(CCCCc2nnc(NC(=O)Cc3cccc(-n4ccnc4)c3)s2)nn1 [Compound 379]	0.097	0.038	–
O=C(Cc1cccc(OCCN2CCOCC2)c1)Nc1nnc(CCCCc2nnc(NC(=O)Cc3cccc(OCCN4CCOCC4)c3)s2)s1 [Compound 241]	0.38	0.87	–
Nc1cccc(CC(=O)Nc2nnc(CCSCCc3nnc(NC(=O)Cc4cccc(N)c4)s3)s2)c1 [Compound 99]	2.7	1	–
